From patent publication US20240254089A1, “MODULATORS OF MAS-RELATED G-PROTEIN RECEPTOR X4 AND RELATED PRODUCTS AND METHODS” (ESCIENT PHARMACEUTICALS, INC., priority 2020, published 2024)
Where two headings read alike, the source gives them in different places.

Biological target: T1, human MRGPR X4 (Homo sapiens, UniProt Q96LA9)
T1 construct: expressed in transfected cells
Experiment: MRGPR X4 antagonist activity, IP-One Gq HTRF assay in stably transfected HEK cells
Type: cell-based
In short: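 Human MRGPR X4-expressing HEK cells, 20,000/well, were incubated with compound (10-point curve, 10 uM top, 1:3 dilutions) plus agonist (10 μM bilirubin, 20 μM deoxycholic acid or 100 μM conjugated bilirubin) in Tris/NaCl/LiCl buffer, pH 8, for 1 h at 37 °C, then 30 min at room temperature. IP-1 was read by HTRF, and IC50 was taken from the HTRF ratio.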

[1] = versus 20 μM deoxycholic acid agonist, HEK cells expressing human MRGPR X4, read-out: MRGPRX4 Antagonist Activity

T1 sequence (Q96LA9 whole entry): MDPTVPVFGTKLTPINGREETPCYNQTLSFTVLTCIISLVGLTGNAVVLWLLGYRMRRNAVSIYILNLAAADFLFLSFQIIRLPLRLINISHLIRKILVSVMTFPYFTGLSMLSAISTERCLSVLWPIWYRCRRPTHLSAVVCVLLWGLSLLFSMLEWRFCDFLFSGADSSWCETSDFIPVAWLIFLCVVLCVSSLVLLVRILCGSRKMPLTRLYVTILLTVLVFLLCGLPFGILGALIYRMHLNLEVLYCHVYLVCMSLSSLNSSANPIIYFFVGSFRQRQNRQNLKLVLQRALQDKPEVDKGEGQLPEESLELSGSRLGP

## O=C(NCCc1nnc2ccccn12)c1nn(Cc2ccc(-n3cccn3)cc2)c2ccccc12 [Compound 461]
  IC50: 1000 to 2500 nM

## Cn1nc(CNC(=O)c2nn(Cc3ccc(Cl)cc3)c3ccccc23)c2cccnc21 [Compound 389]
  IC50: > 2500 nM

## CC(C)(O)c1cn(CCNC(=O)c2nn(Cc3ccc(Cl)cc3)c3ccccc23)nn1 [Compound 140]
  IC50: 501 to 1000 nM

## O=C(NCCc1cccnc1)c1nn(Cc2cccc(F)c2)c2ccccc12 [Compound 96]
  IC50: 1000 to 2500 nM

## O=C(NCCn1nnc2ccccc21)c1nn(Cc2ccc(Cl)cc2)c2ccc(F)cc12 [Compound 533]
  IC50: < 100 nM

## O=C(NCCc1ccc(Cl)c(F)c1)c1cn(CCN2CCC(F)(F)CC2)c2ccccc12 [Compound 223]
  IC50: 1000 to 2500 nM

## O=C(NCc1ccc(O)cc1)c1nn(Cc2ccc(Cl)cc2)c2ccccc12 [Compound 376]
  IC50: 501 to 1000 nM

## CS(=O)(=O)NCCNC(=O)c1nn(Cc2ccc(Cl)cc2)c2ccccc12 [Compound 384]
[1]
  IC50: > 2500 nM

## O=C(NCCOc1ccccc1)c1nn(Cc2ccc(Cl)cc2)c2ccccc12 [Compound 381]
  IC50: 1000 to 2500 nM

## O=C(NCCc1nnc2ccccn12)c1nn(Cc2ccc(Cl)c(Cl)c2)c2ccccc12 [Compound 526]
  IC50: < 100 nM

## O=C(NCCc1nnc2ccccn12)c1nn(Cc2cc3ccccc3s2)c2ccccc12 [Compound 558]
  IC50: < 100 nM

## Cc1cccc(S(=O)(=O)NC(=O)c2nn(Cc3ccc(C(F)(F)F)cc3Cl)c3ccccc23)c1 [Compound 306]
[1]
  IC50: > 2500 nM

## O=C(NCCc1nnc2ccccn12)c1nn(Cc2nc3ccc(C(F)(F)F)cc3[nH]2)c2ccccc12 [Compound 522]
  IC50: 501 to 1000 nM

## COc1ccc2nc(Cn3nc(C(=O)NCCc4nnc5ccccn45)c4ccccc43)[nH]c2c1 [Compound 519]
  IC50: 501 to 1000 nM

## Cc1cc(S(=O)(=O)NC(=O)c2nn(Cc3ccc(OC(F)F)cc3)c3ccccc23)ccc1Cl [Compound 303]
[1]
  IC50: > 2500 nM

## Cc1ccccc1S(=O)(=O)NC(=O)c1cn(Cc2ccc(OC(F)F)cc2)c2ccccc12 [Compound 312, 1-(4-(difluoromethoxy)benzyl)-N-(o-tolylsulfonyl)-1H-indole-3-carboxamide]
[1]
  IC50: 1000 to 2500 nM

## CC(=O)c1ccc(Cn2cc(C(=O)NCCc3cccnc3)c3ccccc32)cc1 [Compound 191]
  IC50: 501 to 1000 nM

## O=C(NCc1cccnc1N1CCOCC1)c1nn(Cc2ccc(Cl)cc2)c2ccccc12 [Compound 395]
  IC50: > 2500 nM

## Cn1ncc2cccc(Cn3nc(C(=O)NCCc4nnc5ccccn45)c4ccccc43)c21 [Compound 460]
  IC50: 501 to 1000 nM

## N#Cc1ccc(Cn2nc(C(=O)NCCc3cccnc3)c3ccccc32)cc1 [Compound 72]
  IC50: 501 to 1000 nM

## COc1ncccc1CCNC(=O)c1cn(Cc2cccc(F)c2)c2ccccc12 [Compound 203]
  IC50: 1000 to 2500 nM

## Cc1ccc(Cn2cc(C(=O)NCCc3nc4c(s3)CCC4)c3ccccc32)cc1 [Compound 174]
  IC50: 100 to 500 nM

## O=C(NCCc1ccncc1)c1cn(Cc2ccc(Cl)cc2)c2ccccc12 [Compound 163]
  IC50: 100 to 500 nM

## O=C(NCCn1cccc1)c1nn(Cc2ccc(Cl)cc2)c2ccccc12 [Compound 349]
  IC50: 501 to 1000 nM

## Cc1cc(C)c2oc(Cn3nc(C(=O)NCCc4nnc5ccccn45)c4ccccc43)cc2c1 [Compound 557]
  IC50: 100 to 500 nM

## COc1ccc2c(c1)c(C(=O)NCCc1nnc3ccccn13)nn2Cc1ccc(Cl)cc1 [Compound 543]
  IC50: 100 to 500 nM

## COc1cc(CCNC(=O)c2nn(Cc3ccc(Cl)cc3)c3ccccc23)ccc1O [Compound 366]
  IC50: < 100 nM

## CC(=O)Nc1cccc(CNC(=O)c2nn(Cc3ccc(Cl)cc3)c3ccccc23)c1 [Compound 377]
  IC50: > 2500 nM

## O=C(O)c1nn(Cc2ccc(Cl)cc2)c2cc(F)ccc12 [Compound 326]
  IC50: > 2500 nM

## O=C(NCCc1ccccn1)c1nn(Cc2ccc(Cl)cc2)c2ccccc12 [Compound 23]
  IC50: < 100 nM

## Cc1ccc(Cn2cc(C(=O)NCCc3ccccn3)c3ccccc32)cc1 [Compound 158]
  IC50: 100 to 500 nM

## O=C(NCc1cccc2nc[nH]c12)c1nn(Cc2ccc(Cl)cc2)c2ccccc12 [Compound 475]
  IC50: > 2500 nM

## Cc1ccc2nc(Cn3nc(C(=O)NCCc4nnc5ccccn45)c4ccccc43)n(C)c2c1 [Compound 568]
  IC50: 501 to 1000 nM

## Cc1ccccc1Cn1cc(C(=O)NCCc2cccnc2)c2ccccc21 [Compound 225]
  IC50: > 2500 nM

## CN(C)c1cccc(Cn2nc(C(=O)NCCc3nnc4ccccn34)c3ccccc32)c1 [Compound 451]
  IC50: 100 to 500 nM

## O=C(NCCc1nnc(C2CCOCC2)[nH]1)c1nn(Cc2cccc(F)c2)c2ccccc12 [Compound 129]
[1]
  IC50: > 2500 nM

## O=C(NCCc1cccc(F)c1)c1cn(Cc2ccc(Cl)cc2)c2ccccc12 [Compound 162]
  IC50: 100 to 500 nM

## O=C(CS(=O)(=O)c1cn(Cc2ccc(Cl)cc2)c2ccccc12)Nc1ccccc1F [Compound 237, 2-((1-(4-chlorobenzyl)-1H-indol-3-yl)sulfonyl)-N-(2-fluorophenyl)acetamide]
[1]
  IC50: 100 to 500 nM

## O=C(NCCc1nnc2ccccn12)c1nn(CC2CCCCC2)c2ccccc12 [Compound 488]
  IC50: 501 to 1000 nM

## Cc1ccc(Cn2nc(C(=O)NCCc3nc4ccccc4o3)c3ccccc32)cc1 [Compound 103]
  IC50: 1000 to 2500 nM

## N#Cc1ccc2c(c1)c(C(=O)NCCc1nnc3ccccn13)nn2Cc1ccc(Cl)cc1 [Compound 551]
  IC50: < 100 nM

## O=C(NCCc1nnc2ccccn12)c1nn(CCC2CCCCC2)c2ccccc12 [Compound 402, N-(2-([1,2,4]triazolo[4,3-a]pyridin-3-yl)ethyl)-1-(2-0cyclohexylethyl)-1H-indazole-3-carboxamide]
  IC50: 100 to 500 nM

## O=C(NCCc1nnc2ccccn12)c1nn(Cc2ccc(Cl)cc2)c2c(Cl)cccc12 [Compound 539]
  IC50: < 100 nM

## Cc1ccccc1NC(=O)CS(=O)(=O)c1cn(Cc2ccc(Cl)cc2)c2ccccc12 [Compound 255]
[1]
  IC50: > 2500 nM

## O=C(O)c1nn(Cc2ccc(OC(F)(F)F)cc2)c2ccccc12 [Compound 321]
  IC50: 1000 to 2500 nM

## CC(C)n1cnnc1CCNC(=O)c1nn(Cc2ccc(Cl)cc2)c2ccccc12 [Compound 99]
  IC50: 1000 to 2500 nM

## Cc1ccc2c(c1)c(C(=O)NCCc1nnc3ccccn13)nn2Cc1ccc(Cl)cc1 [Compound 530, N-(2-([1,2,4]triazolo[4,3-a]pyridin-3-yl)ethyl)-1-(4-chlorobenzyl)-5-methyl-1H-indazole-3-carboxamide]
  IC50: < 100 nM

## O=C(NCCc1nnc2ccccn12)c1nn(Cc2cc3c(cc2Cl)OCO3)c2ccccc12 [Compound 411]
  IC50: < 100 nM

## O=C(NCCc1ccc(F)cc1)c1cn(Cc2cccc(F)c2)c2ccccc12 [Compound 236]
  IC50: > 2500 nM

## O=C(NCCS(=O)(=O)c1ccccc1)c1nn(Cc2ccc(Cl)cc2)c2ccccc12 [Compound 407]
[1]
  IC50: 1000 to 2500 nM

## O=C(NS(=O)(=O)c1ccccc1OC(F)(F)F)c1nn(Cc2ccc(OC(F)F)cc2)c2ccccc12 [Compound 286]
[1]
  IC50: 1000 to 2500 nM

## O=C(NCCc1c[nH]c2ccccc12)c1nn(Cc2ccc(OC(F)(F)F)cc2)c2ccccc12 [Compound 93]
  IC50: 1000 to 2500 nM

## Cc1ccc(S(=O)(=O)NC(=O)c2nn(Cc3ccc(OC(F)F)cc3)c3ccccc23)cc1 [Compound 309, 1-(4-(difluoromethoxy)benzyl)-N-tosyl-1H-indazole-3-carboxamide]
[1]
  IC50: 1000 to 2500 nM

## CN(C)c1cccc(Cn2nc(C(=O)NCCc3nnc4ccccn34)c3ccccc32)n1 [Compound 492]
  IC50: > 2500 nM

## Cc1ccc(Cn2cc(C(=O)NCCc3ccnn3C)c3ccccc32)cc1 [Compound 187]
  IC50: 501 to 1000 nM

## O=C(NCCc1nnc2ccccn12)c1nn(Cc2nc3ccccc3s2)c2ccccc12 [Compound 497]
  IC50: < 100 nM

## O=C(CS(=O)(=O)c1cn(Cc2ccc(Cl)cc2)c2ccccc12)Nc1ccc(Cl)cc1 [Compound 256]
[1]
  IC50: > 2500 nM

## O=C(NCCc1nnc2ccccn12)c1nn(Cc2ccn3ccnc3c2)c2ccccc12 [Compound 476]
  IC50: > 2500 nM

## O=C(NCc1cccc(F)c1F)c1nn(Cc2ccc(Cl)cc2)c2ccccc12 [Compound 360]
  IC50: > 2500 nM

## Cc1ccc(Cn2nc(C(=O)NCCc3cccnc3)c3ccccc32)cc1 [Compound 52]
  IC50: 100 to 500 nM

## Cc1ccc(Cn2nc(C(=O)NCCc3ccnn3C)c3ccccc32)cc1 [Compound 124]
  IC50: > 2500 nM

## O=C(NCc1ccnc2[nH]ccc12)c1nn(Cc2ccc(Cl)cc2)c2ccccc12 [Compound 386]
  IC50: > 2500 nM

## Cc1noc(C)c1CCCNC(=O)c1nn(Cc2ccc(Cl)cc2)c2ccccc12 [Compound 383]
  IC50: 1000 to 2500 nM

## O=C(NCCc1nnc2ccccn12)c1nn(Cc2cccc3c2CCC3)c2ccccc12 [Compound 545]
  IC50: 100 to 500 nM

## O=C(NCc1nc2ccccc2[nH]1)c1nn(Cc2ccc(Cl)cc2)c2ccccc12 [Compound 352]
  IC50: 100 to 500 nM

## O=C(Cn1nc(C(=O)NCCc2nnc3ccccn23)c2ccccc21)c1ccc(Cl)c(Cl)c1 [Compound 482]
[1]
  IC50: < 100 nM

## O=C(CS(=O)(=O)c1cn(Cc2ccc(Cl)cc2)c2ccccc12)Nc1ccccc1 [Compound 242]
[1]
  IC50: 501 to 1000 nM

## Cc1cccc2c(CCNC(=O)c3nn(Cc4ccc(Cl)cc4)c4ccccc34)c[nH]c12 [Compound 341]
  IC50: > 2500 nM

## O=C(NCCc1cccnc1)c1cn(Cc2ccc(OC(F)F)cc2)c2ccccc12 [Compound 166]
  IC50: 100 to 500 nM

## O=C(NCCc1nnc2ccccn12)c1nn(CC(=O)C2CCCCC2)c2ccccc12 [Compound 469]
  IC50: 1000 to 2500 nM

## O=C(NCc1ccc2ccccc2n1)c1nn(Cc2ccc(Cl)cc2)c2ccccc12 [Compound 423]
  IC50: > 2500 nM

## CC(Cc1ccccn1)NC(=O)c1nn(Cc2ccc(Cl)cc2)c2ccccc12 (stereo not drawn) [Compound 127]
  IC50: > 2500 nM

## O=C(NCc1ccc2nonc2c1)c1nn(Cc2ccc(Cl)cc2)c2ccccc12 [Compound 427]
  IC50: > 2500 nM

## Cc1ncccc1CCNC(=O)c1nn(Cc2ccc(C(F)(F)F)cc2)c2ccccc12 [Compound 39]
  IC50: 100 to 500 nM

## O=C(NCCc1ccc(Cl)c(F)c1)c1cn(Cc2ccc(Cl)cc2)c2ccccc12 [Compound 205]
  IC50: 1000 to 2500 nM
